The CheMixHub ionic liquid set
± gives the uncertainty stated by the source.

Assay: xn = mol fraction of the nth substance listed

## CCCCn1cc[n+](C)c1.[Cl][Fe-]([Cl])([Cl])[Cl] + CCOC(C)=O
293.15 K, 101 kPa, x1 = 0.6001
  viscosity: 16.31 ± 0.67 mPa·s
298.15 K, 101 kPa, x1 = 0.7973
  viscosity: 26.3 ± 1.1 mPa·s
298.15 K, 101 kPa, x1 = 0.9
  viscosity: 34.2 ± 1.4 mPa·s
303.15 K, 101 kPa, x1 = 0.6001
  viscosity: 12.31 ± 0.51 mPa·s
303.15 K, 101 kPa, x1 = 0.7973
  viscosity: 22.35 ± 0.93 mPa·s
308.15 K, 101 kPa, x1 = 0.1999
  viscosity: 1.86 ± 0.08 mPa·s
308.15 K, 101 kPa, x1 = 0.3999
  viscosity: 5.26 ± 0.22 mPa·s
308.15 K, 101 kPa, x1 = 0.6001
  viscosity: 10.84 ± 0.45 mPa·s
308.15 K, 101 kPa, x1 = 0.7973
  viscosity: 19.21 ± 0.8 mPa·s
308.15 K, 101 kPa, x1 = 1
  viscosity: 31.9 ± 1.3 mPa·s
313.15 K, 101 kPa, x1 = 0.1999
  viscosity: 1.75 ± 0.07 mPa·s
313.15 K, 101 kPa, x1 = 0.7973
  viscosity: 16.68 ± 0.69 mPa·s
318.15 K, 101 kPa, x1 = 0.3007
  viscosity: 2.76 ± 0.11 mPa·s
318.15 K, 101 kPa, x1 = 0.3999
  viscosity: 4.34 ± 0.18 mPa·s
318.15 K, 101 kPa, x1 = 0.9
  viscosity: 18.34 ± 0.77 mPa·s

## CCCCCC[n+]1ccn(C)c1.O=S(=O)([N-]S(=O)(=O)C(F)(F)F)C(F)(F)F + CC(C)O
293.15 K, 100 kPa, x2 = 0
  viscosity: 85.2 ± 8.6 mPa·s
293.15 K, 100 kPa, x2 = 0.0845
  viscosity: 73.5 ± 7.4 mPa·s
293.15 K, 100 kPa, x2 = 0.2111
  viscosity: 57 ± 5.7 mPa·s
293.15 K, 100 kPa, x2 = 0.3269
  viscosity: 42.3 ± 4.3 mPa·s
293.15 K, 100 kPa, x2 = 0.4529
  viscosity: 29.9 ± 3 mPa·s
293.15 K, 100 kPa, x2 = 0.5435
  viscosity: 22.4 ± 2.2 mPa·s
293.15 K, 100 kPa, x2 = 0.637
  viscosity: 16.2 ± 1.6 mPa·s
293.15 K, 100 kPa, x2 = 0.7321
  viscosity: 12 ± 1.2 mPa·s
293.15 K, 100 kPa, x2 = 0.8285
  viscosity: 8.01 ± 0.81 mPa·s
293.15 K, 100 kPa, x2 = 0.9173
  viscosity: 4.5 ± 0.46 mPa·s
298.15 K, 100 kPa, x2 = 0
  viscosity: 65.9 ± 6.6 mPa·s
298.15 K, 100 kPa, x2 = 0.0845
  viscosity: 56.6 ± 5.7 mPa·s
298.15 K, 100 kPa, x2 = 0.2111
  viscosity: 44.5 ± 4.5 mPa·s
298.15 K, 100 kPa, x2 = 0.3269
  viscosity: 34.1 ± 3.4 mPa·s
298.15 K, 100 kPa, x2 = 0.4529
  viscosity: 24.2 ± 2.4 mPa·s
298.15 K, 100 kPa, x2 = 0.5435
  viscosity: 18.8 ± 1.9 mPa·s
298.15 K, 100 kPa, x2 = 0.637
  viscosity: 13.6 ± 1.4 mPa·s
298.15 K, 100 kPa, x2 = 0.7321
  viscosity: 9.86 ± 0.99 mPa·s
298.15 K, 100 kPa, x2 = 0.8285
  viscosity: 6.52 ± 0.66 mPa·s
298.15 K, 100 kPa, x2 = 0.9173
  viscosity: 3.73 ± 0.38 mPa·s
303.15 K, 100 kPa, x2 = 0
  viscosity: 51.9 ± 5.2 mPa·s
303.15 K, 100 kPa, x2 = 0.0845
  viscosity: 45 ± 4.5 mPa·s
303.15 K, 100 kPa, x2 = 0.2111
  viscosity: 36.5 ± 3.7 mPa·s
303.15 K, 100 kPa, x2 = 0.3269
  viscosity: 28.6 ± 2.9 mPa·s
303.15 K, 100 kPa, x2 = 0.4529
  viscosity: 20.2 ± 2 mPa·s
303.15 K, 100 kPa, x2 = 0.5435
  viscosity: 15.6 ± 1.6 mPa·s
303.15 K, 100 kPa, x2 = 0.637
  viscosity: 11.4 ± 1.1 mPa·s
303.15 K, 100 kPa, x2 = 0.7321
  viscosity: 8.26 ± 0.83 mPa·s
303.15 K, 100 kPa, x2 = 0.8285
  viscosity: 5.51 ± 0.56 mPa·s
303.15 K, 100 kPa, x2 = 0.9173
  viscosity: 3.24 ± 0.33 mPa·s
308.15 K, 100 kPa, x2 = 0
  viscosity: 41.4 ± 4.2 mPa·s
308.15 K, 100 kPa, x2 = 0.0845
  viscosity: 36 ± 3.6 mPa·s
308.15 K, 100 kPa, x2 = 0.2111
  viscosity: 30.5 ± 3.1 mPa·s
308.15 K, 100 kPa, x2 = 0.3269
  viscosity: 24.1 ± 2.4 mPa·s
308.15 K, 100 kPa, x2 = 0.4529
  viscosity: 17.2 ± 1.7 mPa·s
308.15 K, 100 kPa, x2 = 0.5435
  viscosity: 13.2 ± 1.3 mPa·s
308.15 K, 100 kPa, x2 = 0.637
  viscosity: 9.62 ± 0.97 mPa·s
308.15 K, 100 kPa, x2 = 0.7321
  viscosity: 7.11 ± 0.71 mPa·s
308.15 K, 100 kPa, x2 = 0.8285
  viscosity: 4.67 ± 0.47 mPa·s
308.15 K, 100 kPa, x2 = 0.9173
  viscosity: 2.82 ± 0.29 mPa·s
313.15 K, 100 kPa, x2 = 0
  viscosity: 33.8 ± 3.4 mPa·s
313.15 K, 100 kPa, x2 = 0.0845
  viscosity: 30.5 ± 3.1 mPa·s
313.15 K, 100 kPa, x2 = 0.2111
  viscosity: 25.6 ± 2.6 mPa·s
313.15 K, 100 kPa, x2 = 0.3269
  viscosity: 20.6 ± 2.1 mPa·s
313.15 K, 100 kPa, x2 = 0.4529
  viscosity: 14.9 ± 1.5 mPa·s
313.15 K, 100 kPa, x2 = 0.5435
  viscosity: 11.3 ± 1.1 mPa·s
313.15 K, 100 kPa, x2 = 0.637
  viscosity: 8.31 ± 0.84 mPa·s
313.15 K, 100 kPa, x2 = 0.7321
  viscosity: 6.06 ± 0.61 mPa·s
313.15 K, 100 kPa, x2 = 0.8285
  viscosity: 3.98 ± 0.4 mPa·s
313.15 K, 100 kPa, x2 = 0.9173
  viscosity: 2.41 ± 0.24 mPa·s

## CCCCCC[n+]1ccn(C)c1.[Br-] + O
288.15 K, 100 kPa, x1 = 0.0001802
  viscosity: 1.159 ± 0.044 mPa·s
288.15 K, 100 kPa, x1 = 0.0007203
  viscosity: 1.165 ± 0.044 mPa·s
288.15 K, 100 kPa, x1 = 0.00126
  viscosity: 1.171 ± 0.044 mPa·s
288.15 K, 101 kPa, x1 = 1.982e-05
  viscosity: 1.136 ± 0.024 mPa·s
288.15 K, 101 kPa, x1 = 3.243e-05
  viscosity: 1.138 ± 0.024 mPa·s
288.15 K, 101 kPa, x1 = 6.667e-05
  viscosity: 1.142 ± 0.024 mPa·s
298.15 K, 100 kPa, x1 = 0.0001802
  viscosity: 0.926 ± 0.043 mPa·s
298.15 K, 100 kPa, x1 = 0.0007203
  viscosity: 0.934 ± 0.043 mPa·s
298.15 K, 100 kPa, x1 = 0.00126
  viscosity: 0.942 ± 0.043 mPa·s
298.15 K, 100 kPa, x2 = 0.9008
  viscosity: 6.89 ± 0.35 mPa·s
298.15 K, 101 kPa, x1 = 3.243e-05
  viscosity: 0.891 ± 0.019 mPa·s
298.15 K, 101 kPa, x1 = 6.667e-05
  viscosity: 0.896 ± 0.019 mPa·s
298.15 K, 101 kPa, x1 = 0.001844
  viscosity: 0.948 ± 0.013 mPa·s
298.15 K, 101 kPa, x1 = 0.003654
  viscosity: 1.005 ± 0.014 mPa·s
298.15 K, 101 kPa, x1 = 0.005425
  viscosity: 1.053 ± 0.014 mPa·s
298.15 K, 101 kPa, x1 = 0.007153
  viscosity: 1.101 ± 0.014 mPa·s
308.15 K, 100 kPa, x1 = 0.0001802
  viscosity: 0.762 ± 0.043 mPa·s
308.15 K, 100 kPa, x1 = 0.0007203
  viscosity: 0.77 ± 0.043 mPa·s
308.15 K, 100 kPa, x1 = 0.00126
  viscosity: 0.776 ± 0.043 mPa·s
308.15 K, 101 kPa, x1 = 1.982e-05
  viscosity: 0.722 ± 0.016 mPa·s
308.15 K, 101 kPa, x1 = 3.243e-05
  viscosity: 0.723 ± 0.016 mPa·s
308.15 K, 101 kPa, x1 = 6.667e-05
  viscosity: 0.726 ± 0.016 mPa·s
318.15 K, 100 kPa, x1 = 0.0001802
  viscosity: 0.645 ± 0.042 mPa·s
318.15 K, 100 kPa, x1 = 0.0007203
  viscosity: 0.643 ± 0.042 mPa·s
318.15 K, 100 kPa, x1 = 0.00126
  viscosity: 0.66 ± 0.043 mPa·s
